Conditions: pH 7.4

| Solubility (in words) | Substance |
| --- | --- |
| less soluble | Ac- MNWESkGEwlRMRYGtmLSNGnM- NH2 [Design P2] |
| less soluble | Ac- RGEaWmYlKNNLSETmMsNmWGR- NH2 [AP6] |

From article PMC4884539 (Journal of molecular biology, 2016)
